# Measured values as given in paper PMC5503984, “Characterisation of preproendothelin-1 derived peptides identifies Endothelin-Like Domain Peptide as a modulator of Endothelin-1” (Scientific Reports, 2017).
# Where no end group is shown, it is not given here.
# Key:
# [1] = RP-HPLC elution position of synthetic proET-1 peptides; type: physicochemical; conditions: ACE-5 C4 300 Å, 5 µm, 4.6 × 250 mm, 1 ml/min, 0.1% TFA – 10% solvent B (80% CH3CN with 0.1% TFA) over 2 min, then 10–30% B over 50 min, 1 min fractions, absorbance at 280 nm and immunoassay
# Protocol: Figure 2 Size exclusion chromatography of peptide precipitates from (A) EA.hy 926 and (B) A549 cell lines, (C) cation exchange chromatography of conditioned media from EA.hy 926, and HPLC characterisation of pro-ET-1 peptides from EA.hy 926 cells – (D) NT-proET-1, (E) ELDP and (F) CT-proET-1. (A) and (B) proendothelin-1 peptides from EA.hy 926 and A549 cell lines were subjected to size exclusion chromatography (column 1.6 × 100 cm, Sephadex G50 superfine) equilibrated at 4 °C with 0.1 M NaCl containing 0.01 M HCl. Fractions were subjected to immunoassay for ppET-1[42–50] (open circles) and ppET-1[93–102] (closed circles). Elution positions of adrenomedullin (ADM, M r 6029), big ET-1 (bET-1, M r 4283) and ET-1 (M r 2492) are indicated. […] ELDP (red columns) and CT-proET-1 (blue columns) were measured using immunoassays. […]
# ProET-1 peptides were subjected to reverse phase HPLC on C4 silica (15 µm, 300 Å pore, 1 × 25 cm; Jupiter® Phenomenex) with gradient elution at 2 ml/min: 0.1% TFA – 15% solvent B (80% CH3CN with 0.1% TFA) over 2 min, followed by 15–60% B over 45 min. […] Synthetic peptides were used to characterise elution positions of NT-proET-1, ELDP and CT-proET-1 on this second HPLC system by monitoring absorbance at 280 nm and immunoassay of fractions. […]
# [2] = Clearance of proET-1 peptides after i.v. bolus in anaesthetised rats; type: in vivo, rat; conditions: rat; for plasma level at 30 s as % of administered peptide, relative to estimates for dilution in circulating blood: 1 nmol/kg i.v., hypothetical maximum plasma concentration 23–35 pmol/ml; for level at time molar at 0.5 min: iv, anaesthetised male Wistar rats, bolus 1 nmol/kg i.v. of each peptide as a combined solution in 0.9% saline/0.1% BSA, arterial plasma, Luminex multiplex immunoassay, mean ± SD, read-out: plasma level 30 s after injection
# Protocol: To examine whether circulating half-lives influenced plasma levels of proET-1 peptides clearance rates were investigated in anaesthetised rats. […] Based on a circulating blood volume of 7.2 ± 0.3 ml per 100 g body weight, a mean weight of 345 ± 6 g and hematocrit of 40–60%, the hypothetical maximum plasma concentrations were 23–35 pmol/ml. However, the levels of NT-proET-1, ELDP and CT-proET-1 30 s after injection were 0.29 ± 0.02, 3.65 ± 0.23, and 11.74 ± 0.64 pmol/ml, respectively. Relative to estimates for dilution in circulating blood, these values represent ≈1%, 10–16%, and 34–51% of administered peptide for NT-proET-1, ELDP and CT-proET-1. Moreover, NT-proET-1 was almost completely cleared from the circulation in <5 min (estimated initial t½ < 20 s).
# Figure 5 Comparison of clearance rates of NT-proET-1, ELDP and CT-proET-1 in anaesthetised rats. A bolus dose containing 1 nmol/kg of each proET-1 peptide as a combined solution prepared in 0.9% saline/0.1% BSA was administered i.v. and heparinised arterial blood samples (0.5 ml) were collected at 0.5, 1, 2, 5, 10, 20 and 40 min after administration of proET-1 peptides. NT-proET-1 (mauve circles), ELDP (red circles) and CT-proET-1 (blue circles) were measured by magnetic bead-based multiplex assays using Luminex methodology (values are mean ± SD, except where SD is less than the symbol size).
# A multiplexed immunoassay system was used for simultaneous measurement of NT-proET-1, ELDP and CT-proET-1 in small volumes of rat plasma. Capture antibodies were conjugated to magnetic beads (region 45 – NT-proET-1, region 36 – ELDP, and region 27 – CT-proET-1) following standard protocols (Luminex Corporation). For assay capture antibody-coated magnetic beads were diluted as a premixed combination (10 µl/well) and incubated overnight at 4 °C on an orbital plate mixer with plasma (15 µl) and assay buffer (135 µl). For detection, beads were washed using a ring magnet plate washer before adding 25 µl of combined biotinylated detection antibodies and incubating for 2 h at room temperature on an orbital plate mixer.
# All experiments were conducted according to the Animals (Scientific Procedures) Act 1986, UK, and approved by the UK Home Office. Clearance rates of proET-1 peptides and blood pressure effects of ELDP were determined in male Wistar rats (Charles River) anaesthetised with sodium thiopentone (120 mg/kg i.p.). Peptides were administered i.v. via a polyethylene catheter in the left femoral vein. Blood samples (0.5 ml) were collected from a catheter in the left carotid artery into chilled 1.5 ml microcentrifuge tubes containing 50 U/5 µl of heparin. Samples were centrifuged at 12,000 rpm for 2 min at 4 °C. Plasma (50 µl aliquots) samples were stored at −80 °C for subsequent analyses. Blood pressure and heart rate were recorded from the left carotid artery via a polyethylene catheter using Labchart 7.1 (AD Instruments Ltd).
# [3] = cited from earlier work
# Text: The endothelin-like domain sequence is highly conserved with the first four Cys residues having identical spacing to ET-1 (Fig. 6)[18], [19]. There is also considerable sequence homology adjacent to the endothelin-like domain, which has been retained throughout mammalian evolution, such that human ppET-1[107–131] has 92% sequence identity with mouse ELDP and 88% with platypus over this sequence. […] However, choice of test conditions and pepti ...
# [4] = system: human aortic endothelial cells; experiment: Secretion of ET-1 and proET-1 peptides from cultured human aortic endothelial cells (sandwich ELISA); type: cell-based; conditions: 6 h incubation
# Text: To confirm that proET-1 peptides are a reproducible index of ET-1 synthesis we compared the level of peptide production in cultured human aortic endothelial cells under conditions known to increase or decrease ET-1 expression. These experiments also confirmed that early passage human endothelial cells from primary cultures produce the same peptides with the stoichiometric relationship expected for proET-1 processing.
# Figure 3 Correlation between secretion of ET-1 and proET-1 peptides from human aortic endothelial cells. Confluent cultures were incubated for 6 h in basal medium alone, or with 1 mM phosphoramidon (PHA), 2.5 or 5 µg/ml apple procyanidin pentamer (AP-2.5, AP-5), 5 µg/ml grape seed extract (GSE), 10 ng/ml TNFα or 1 ng/ml TGFß. All peptides were measured using specific sandwich ELISAs, and converted to % basal release (A,B,C,E and G). Results are mean ± SD from 4 experiments. Significant differences were determined by ANOVA with Bonferroni correction for multiple comparisons (*P = < 0.05; ***P = < 0.001). (D,F) and (H) show correlations between secretion of ET-1 and the respective proET-1 peptides under the different incubation conditions (excluding data obtained with phosporamidon).
# Underlined sequences in Table 1 indicate peptide antigens used to raise specific antisera for sandwich immunoassays following previously described methodologies. Immunogens for ppET-1[93–109] and ppET-1[155–166] were prepared by conjugation via terminal Cys residues to maleimide groups on pre-treated carrier proteins. To enable conjugation of ppET-1[18–30], ppET-1[93–102] and ppET-1[169–186] by the maleimide methodology, synthetic peptides for these antigens included a C-terminal Cys-NH2 residue. Immunogens for ppET-1[42–50] and ppET-1[204–212] were prepared by glutaraldehyde conjugation to carrier protein[30]. For initial characterisation of conditioned media samples, rabbit antisera raised against ppET-1[42–50] and ppET-1[93–102] were used to establish radioimmunoassays for these peptide antigens. Subsequent investigations used sandwich ELISA methodologies with specific IgG purified from antisera using the respective peptide antigens (Table 1) coupled to SulfoLink Coupling Resin (Thermo Scientific/Pierce) or CNBr-Sepharose (GE Healthcare)[30]. Purified IgG for use as detection antibodies were biotinylated with NHS-LC-LC-biotin (Thermo Scientific/Pierce), and used for assay measurements with enhanced chemiluminescence.
# EA.hy 926 and A549 cell lines were grown in Dulbecco’s modified Eagle medium with 10% fetal bovine serum at 37 °C in a humidified CO2 incubator (8% CO2, 92% air) as previously described, [30]. Human aortic endothelial cells were passaged cells from primary cultures grown in endothelial cell basal medium with growth supplement (Cell Applications Inc.), and used when confluent to compare secretion of proET-1 peptides with ET-1. Purified apple procyanidin pentamer was from Asahi Breweries (Moriya, Ibaraki 302–0106, Japan), grape seed extract was form Polyphenolics (Madera, CA), TNFα and TGFβ were from R&D Systems.
# [5] = ET-1; cited from earlier work
# Text: After intravenous injection NT-proET-1 was rapidly eliminated from the circulation (t½ < 20 s). Such rapid clearance indicates uptake or metabolism. ET-1 also has a short t½ (30–60 s)[42], [43], which is due primarily to clearance by endothelial ETB receptors in the pulmonary vasculature, [45], and to a lesser extent degradation by neutral endopeptidase 24.11, particularly in post capillary veins, [47]. In the absence of receptor-mediated clearance, the high disappearance rate of NT-proET-1 is likely due to peptidase activity in the circulation, particularly in the pulmonary circulatio ...
# [6] = 1 nmol/kg i.v. bolus, plasma sampled 0.5–40 min, two-phase clearance
# [7] = 1 mM phosphoramidon, 4 experiments
molecule,measurement,setting,value
SSEEHLRQTRSETMRNSVKSSFHDPKLKGKPSRERYVTHNRAHW [CT-proET-1],elution position on RP-HPLC (fraction number),[1],28 fraction
same,"estimated t½, phase 1",[2]; [6],42 s
same,"estimated t½, phase 2",[2]; [6],438 s
same,"plasma level at 30 s as % of administered peptide, relative to estimates for dilution in circulating blood",[2],34–51%
same,level at time molar at 0.5 min,[2],11.7 ± 0.64 nM
"ppET-1[110–130]: preproendothelin [110–130] fragment tested in an earlier study (QCASQKDKKCWNFCQAGKELR; UniProt P05305 110-130, looked up, fragment)",cardiovascular effects,[3],failed to show any cardiovascular effects
APETAVLGAELSAVGENGGEKPTPSPPWRLRRS [NT-proET-1],time to almost complete clearance from the circulation,[2]; 1 nmol/kg i.v. bolus,< 5 min
same,estimated initial t½,"[2]; 1 nmol/kg i.v. bolus, plasma",< 20 s
same,"plasma level at 30 s as % of administered peptide, relative to estimates for dilution in circulating blood",[2],≈ 1%
same,level at time molar at 0.5 min,[2],0.29 ± 0.02 nM
TNFα,ET-1 and ELDP in conditioned media,"[4]; TNFα 10 ng/ml, 4 experiments",did not change
same,big ET-1 concentrations,"[4]; TNFα 10 ng/ml, 4 experiments",increased
same,levels of NT-proET-1 and CT-proET-1 in conditioned media,"[4]; TNFα 10 ng/ml, 4 experiments",significantly increased
Apple procyanidin pentamer,"synthesis/secretion of all peptides (ET-1, big ET-1 and proET-1 peptides)","[4]; apple procyanidin pentamer 2.5 or 5 µg/ml, grape seed extract 5 µg/ml, TGFß 1 ng/ml, % basal release, 4 experiments",reduced
Endothelin-1 [ET-1],t½ in the circulation,[5],30 to 60 s
CC(C)C[C@H](NP(=O)(O)O[C@@H]1O[C@@H](C)[C@H](O)[C@@H](O)[C@H]1O)C(=O)N[C@@H](Cc1c[nH]c2ccccc12)C(=O)O [phosphoramidon],ET-1 synthesis,[4]; [7],suppressed
same,"proET-1 peptide production (NT-proET-1, ELDP, CT-proET-1)",[4]; [7],no effect
same,increase in big ET-1 compared to basal,"[4]; 1 mM phosphoramidon, confluent human aortic endothelial cells, mean ± SD from 4 experiments",14.9 ± 2.8 fold
